Experimental data taken from patent US6649654B1, “Methods for identifying and using IKK inhibitors” (The Regents of the University of California, priority 1999, dated 2003).
Substitutions are numbered along the chain they refer to.

Assays:
IKK = IKK (Homo sapiens, UniProt O14920+O15111); test: TNFα-induced IKK activity in human peripheral blood monocytes; type: cell-based
IKKβ = molecular target: T1, IKKβ (Homo sapiens, UniProt O14920); test: Recombinant wild-type IKKβ (Sf9) kinase activity; type: biochemical; design: FLAG; made in house; host or cells: Sf9 (baculovirus)
T1 sequence (O14920 1-756): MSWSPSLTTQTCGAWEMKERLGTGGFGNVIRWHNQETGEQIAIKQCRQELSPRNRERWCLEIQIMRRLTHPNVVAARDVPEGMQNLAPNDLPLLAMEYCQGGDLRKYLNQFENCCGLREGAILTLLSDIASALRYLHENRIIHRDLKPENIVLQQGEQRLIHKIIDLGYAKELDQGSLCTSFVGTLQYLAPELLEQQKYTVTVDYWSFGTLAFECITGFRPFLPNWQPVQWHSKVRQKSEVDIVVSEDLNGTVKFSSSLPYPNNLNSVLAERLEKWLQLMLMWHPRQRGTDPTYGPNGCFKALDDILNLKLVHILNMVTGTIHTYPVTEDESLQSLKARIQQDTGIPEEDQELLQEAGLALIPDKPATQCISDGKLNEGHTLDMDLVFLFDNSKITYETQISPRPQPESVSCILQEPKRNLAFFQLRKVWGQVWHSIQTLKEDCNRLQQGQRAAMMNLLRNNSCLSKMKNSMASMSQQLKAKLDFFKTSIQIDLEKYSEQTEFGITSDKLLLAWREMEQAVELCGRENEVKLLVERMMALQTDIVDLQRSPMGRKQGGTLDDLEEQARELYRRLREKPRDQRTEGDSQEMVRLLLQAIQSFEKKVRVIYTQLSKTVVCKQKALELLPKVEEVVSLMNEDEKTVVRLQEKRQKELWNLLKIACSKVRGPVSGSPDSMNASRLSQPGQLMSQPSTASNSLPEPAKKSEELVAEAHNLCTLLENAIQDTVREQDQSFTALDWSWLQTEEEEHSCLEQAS
Protocol: In addition, recombinant IKKβ was expressed in Sf9 cells and purified as described (Zandi et al., supra). AA, PGs, LTB4, and T×B2 were added to washed imnmunoprecipitates of recombinant IKKβ in kinase buffer to a final volume of 500 μl. After 1.5 hours at 4° C., the immunoprecipitates were washed and the kinase activity determined. Western blot analysis was also performed as known in the art (See e.g., Rossi et al., supra).
In other experiments, purified recombinant IKKβ immobilized on beads with 15dPGJ2 or diluent were preincubated and extensively rinsed with kinase buffer lacking the inhibitor.

IKKβ(C179A) = molecular target: T2, IKKβ(C179A) (Homo sapiens, UniProt O14920, C179A); test: 2XNFκB-LUC reporter in HeLa cells with NIK and IKKβ(C179A); type: cell-based; design: FLAG; made in house; details: luciferase at 24 hours, FIG. 6E
T2 sequence (O14920 1-756 C179A): T1 sequence (O14920 1-756) with C179A
Protocol: Recombinant IKKβ(C179A) was also resistant to concentrations of 15dPGJ2 that were inhibitory to wild-type IKKβ (as shown in FIG. 6D), and also to PGA1. An NF-κB dependent transcriptional reporter (2XNFκB-LUC) was preincubated with expression vector encoding either wild-type IKKβ or IKKβ(C179A). A NIK expression vector was included to ensure maximal IKK activation. […] FIG. 6E provides the results for HeLa cells transiently transfected with a 2×NF-κB-LUC reporter, a NIK expression vector and expression vectors for wild type IKKβ or IKKβ(C179A). At 3 hours post-transfection, cells were treated with 15dPGJ2 and at 24 hours, the luciferase activities were determined for duplicate samples. In each case, the maximal activity achieved in the absence of inhibitor was given an arbitrary value of 100% and the other values were calculated relative to this one.

IKK, sequence (O15111 whole entry, one chain of several): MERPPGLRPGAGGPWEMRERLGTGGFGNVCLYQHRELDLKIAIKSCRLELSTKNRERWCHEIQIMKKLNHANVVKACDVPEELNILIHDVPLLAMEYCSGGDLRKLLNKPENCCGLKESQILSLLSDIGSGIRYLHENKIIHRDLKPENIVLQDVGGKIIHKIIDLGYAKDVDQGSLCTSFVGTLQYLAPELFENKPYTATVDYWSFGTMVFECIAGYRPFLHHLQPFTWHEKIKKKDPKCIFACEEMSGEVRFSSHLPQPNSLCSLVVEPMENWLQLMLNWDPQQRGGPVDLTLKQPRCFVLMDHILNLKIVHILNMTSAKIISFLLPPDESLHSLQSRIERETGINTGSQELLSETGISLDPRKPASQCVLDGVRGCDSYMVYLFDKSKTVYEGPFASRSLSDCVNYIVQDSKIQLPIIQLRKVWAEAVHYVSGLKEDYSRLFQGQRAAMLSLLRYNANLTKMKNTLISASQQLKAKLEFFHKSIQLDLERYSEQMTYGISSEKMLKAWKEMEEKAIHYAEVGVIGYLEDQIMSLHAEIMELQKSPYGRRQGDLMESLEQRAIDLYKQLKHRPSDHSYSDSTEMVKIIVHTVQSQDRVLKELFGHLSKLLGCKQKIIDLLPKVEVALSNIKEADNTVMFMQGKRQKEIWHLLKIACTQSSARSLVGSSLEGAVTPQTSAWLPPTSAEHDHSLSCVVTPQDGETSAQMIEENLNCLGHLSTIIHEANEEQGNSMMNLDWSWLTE
IKK, sequence (Q9Y6K9 whole entry partner, one chain of several): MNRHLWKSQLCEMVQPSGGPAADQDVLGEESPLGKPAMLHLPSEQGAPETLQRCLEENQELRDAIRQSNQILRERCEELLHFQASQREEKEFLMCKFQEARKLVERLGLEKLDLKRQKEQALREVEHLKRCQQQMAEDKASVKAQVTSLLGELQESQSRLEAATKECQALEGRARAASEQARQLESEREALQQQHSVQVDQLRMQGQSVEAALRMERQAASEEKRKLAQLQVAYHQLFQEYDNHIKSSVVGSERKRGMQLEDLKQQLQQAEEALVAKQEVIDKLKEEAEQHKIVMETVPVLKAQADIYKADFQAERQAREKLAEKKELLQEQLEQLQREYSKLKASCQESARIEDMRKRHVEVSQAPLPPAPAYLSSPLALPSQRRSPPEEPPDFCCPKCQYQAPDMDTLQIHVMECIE

For `CCCCC/C=C/C=C1/C(=O)C=C[C@@H]1C/C=C\CCCC(=O)O` [15dPGJ2, 15-deoxy-Δ^12-14-PGJ2], the “effect on TNFα-induced IKK activity” value (IKK) was “inhibited”, the “effect on recombinant wild-type IKKβ” value (IKKβ; FIG. 6D) was “inhibitory” and the “inhibition after extensive washing (reversibility)” value (IKKβ; recombinant IKKβ on beads pre-incubated with inhibitor, rinsed with kinase buffer) was “remained inhibited”. For the same compound, the “sensitivity of NF-κB activation through IKKβ(C179A)” value (IKKβ(C179A)) was “insensitive”.
